Legend:
[1] = literature; cited from earlier work
[2] = test system: primary mammary tumor of a patient; assay: Mammary carcinoma xenograft; type: in vivo, NMRI (nude) mice
[3] = test system: human derived breast cancer model with CD138 IHC score 2-3; assay: Breast cancer model, CD138 IHC score 2-3; type: in vivo, NMRI nude mice; details: 10 mg/kg
Description: The results are shown in terms of the effect on the mean relative tumor volume in the model relative to an intravenous administration of PBS. For the calculation of the median relative tumor volume on day, see FIG. 33.

[4] = test system: human derived breast cancer model with CD138 IHC score 1-2; assay: Breast cancer model, CD138 IHC score 1-2; type: in vivo, NMRI nude mice; details: 10 mg/kg
Description: No difference in the treatment regimens was observed. The results are shown in terms of the effect on the mean relative tumor volume in the model relative to an intravenous administration of PBS. For the calculation of the median relative tumor volume on day, see FIG. 33.

primary pancreatic tumor = assay: Example 9 xenograft (FIG. 38); type: in vivo, NMRI (nude) mice; details: 10 mg/kg; treatment period and treatment free period
Description: The results are shown in terms of the effect on the mean relative tumor volume.

CD138 expression = assay: Effect of lenalidomide on CD138 expressing cells in vitro; details: different cell lines, 24 h incubation (FIG. 32)
RPMI 8226 = assay: Synergy determination in cell lines (Chou and Talalay); type: cell-based; details: drug in combination with BT062
Method: Combination studies in xenograph mouse models were preceded by studies in cell lines. […] Here, IC50 values for the cytotoxic effects for each drug and each cell line are calculated, and then IC50 ratios for each drug pair. The cells were then exposed to dilution series of either these drug mixtures, or the drugs alone. Experimental data were analyzed using the CompuSyn software (ComboSyn, Inc., Paramus, N.J.). Combination Indexes (CI) for each independent experiment were calculated and reported separately. In the analysis, CI less than 1, equal to 1 and more than 1 indicates synergy, additivity and antagonism, respectively. According to the classification of T. C.

[5] = test system: MOLP8 multiple myeloma cells; assay: MOLP8 xenograft, combination BT062 and VELCADE; type: in vivo, mice
Description: The ACTIVITY RATING is another measurement for the effects of a combination. This rating is based on the Log10 cell kill
where (T-C) or tumor growth delay, is the median time in days required for the treatment group (T) and the control group (C) tumours, to reach a predetermined size (600 mm^3).

[6] = cited from earlier work
[7] = Clinical trials of other immunoconjugates (literature); type: in vivo, human; details: assuming 70 kg and 1.9 m^2 body surface area

Molecule: COc1cc2cc(c1Cl)N(C)C(=O)C[C@H](OC(=O)[C@H](C)N(C)C(=O)CCS)[C@]1(C)O[C@H]1[C@H](C)[C@@H]1C[C@@](O)(NC(=O)O1)[C@H](OC)/C=C/C=C(\C)C2 [DM1, N^2-deacetyl-N^2-(3-mercapto-1-oxopropyl)-maytansine]
- cytotoxicity, fold more cytotoxic than maytansine [1]: 3- to 10 fold

Molecule: COc1cc2cc(c1Cl)N(C)C(=O)C[C@H](OC(=O)[C@H](C)N(C)C(=O)CCC(C)(C)S)[C@]1(C)O[C@H]1[C@H](C)[C@@H]1C[C@@](O)(NC(=O)O1)[C@H](OC)/C=C/C=C(\C)C2 [DM4, N^2′-deacetyl-N^2′-(4-methyl-4-mercapto-1-oxopentyl)-maytansine, reference compound]
- tumor response ([2]; amount corresponding to that in 4 mg BT062): did not result in tumor response

Molecule: CC(=O)O[C@@]12CO[C@@H]1C[C@H](O)[C@@]1(C)C(=O)[C@H](O)C3=C(C)[C@@H](OC(=O)[C@H](O)[C@@H](NC(=O)OC(C)(C)C)c4ccccc4)C[C@@](O)([C@@H](OC(=O)c4ccccc4)[C@H]21)C3(C)C [Docetaxel, reference compound]
- tumor response [3]: response
- tumor response [4]: did not respond
- tumor response (primary pancreatic tumor): complete remission

Molecule: Nc1cccc2c1CN(C1CCC(=O)NC1=O)C2=O (centres unmarked) [Lenalidomide]
- CD138 expression (CD138 expression): concentration dependent CD138 decrease
- Estimate of synergistic result (RPMI 8226): Synergistic

Molecule: CC(=O)O[C@H]1C(=O)[C@@]2(C)[C@H]([C@H](OC(=O)c3ccccc3)[C@]3(O)C[C@H](OC(=O)[C@H](O)[C@@H](NC(=O)c4ccccc4)c4ccccc4)C(C)=C1C3(C)C)[C@]1(OC(C)=O)CO[C@@H]1C[C@@H]2O [Taxol, Paclitaxel, reference compound]
- tumor response ([2]; 10 mg/kg): only a minor tumor growth delay

Molecule: CC(C)C[C@H](NC(=O)[C@H](Cc1ccccc1)NC(=O)c1cnccn1)B(O)O [Velcade, bortezomib, reference compound]
- effect on the tumor volume ([5]; VELCADE treatment alone (FIG. 31)): no effect
- Tumor free survivors day 67 ([5]; Velcade 1 mg/kg): 0/6
- log cell kill ([5]; Velcade 1 mg/kg): 0.0

Molecule: COc1cc2cc(c1Cl)N(C)C(=O)C[C@H](OC(=O)[C@H](C)N(C)C(C)=O)[C@]1(C)O[C@H]1[C@H](C)[C@@H]1C[C@@](O)(NC(=O)O1)[C@H](OC)/C=C/C=C(\C)C2 [maytansine]
- cytotoxicity, fold higher than Vinca alkaloids or taxol [1]: 200-1000 fold

Molecule: SAR3419
- patients with a response ([6]; 22 patients at the MTD (55 mg/m^2)): 36%
- patients achieving an objective response ([6]; 38 patients at 20 mg/m^2 or higher, weekly, B-cell NHL): 32%
- MTD, single administration every three weeks ([6]; literature): 160 mg/m^2
- Corresponds to total concentration of [7]: 110 mg

Molecule: SGN-35
- Once weekly regimen, dose administered ([6]; literature): Up to 1.2 mg/kg
- Corresponds to total concentration of [7]: 84 mg

B1: SGN-75: anti-CD70; MMAF (SEATTLE GENETICS) (conjugate, chains of the INN, looked up)
VH: QVQLVQSGAEVKKPGASVKVSCKASGYTFTNYGMNWVRQAPGQGLKWMGWINTYTGEPTYADAFKGRVTMTRDTSISTAYMELSRLRSDDTAVYYCARDYGDYGMDYWGQGTTVTVSS
VL: DIVMTQSPDSLAVSLGERATINCRASKSVSTSGYSFMHWYQQKPGQPPKLLIYLASNLESGVPDRFSGSGSGTDFTLTISSLQAEDVAVYYCQHSREVPWTFGQGTKVEIK
modifications: MMAF conjugate
- MTD, once weekly regimen ([6]; literature): not been reached)

B2: IMGN242: analog of cantuzumab mertansine, huC242-DM4 (conjugate, chains of the INN, looked up)
VH: QVQLVQSGAEVKKPGETVKISCKASDYTFTYYGMNWVKQAPGQGLKWMGWIDTTTGEPTYAQKFQGRIAFSLETSASTAYLQIKSLKSEDTATYFCARRGPYNWYFDVWGQGTTVTVSS
VL: DIVMTQSPLSVPVTPGEPVSISCRSSKSLLHSNGNTYLYWFLQRPGQSPQLLIYRMSNLVSGVPDRFSGSGSGTAFTLRISRVEAEDVGVYYCLQHLEYPFTFGPGTKLELK
modifications: DM4 maytansinoid conjugate
- subjects experiencing dose-limiting toxicity ([6]; 223 mg/m^2 once every 3 weeks, second cycle): 2 of 6

Reference: patent US20190117770A1, “USES OF IMMUNOCONJUGATES TARGETING CD138” (Biotest AG, priority 2011, published 2019)
